Consider 15 molecules from EP2548876A1, “New CRTh2 antagonists” (Almirall, S.A., priority 2011, dated 2013).

The target in the assay is T1, CRTh2 receptor (Homo sapiens, UniProt Q9Y5Y4).
T1 construct: expressed in transfected cells; host or cells: CHO.K1 cells (membranes)
T1 sequence (Q9Y5Y4 1-395): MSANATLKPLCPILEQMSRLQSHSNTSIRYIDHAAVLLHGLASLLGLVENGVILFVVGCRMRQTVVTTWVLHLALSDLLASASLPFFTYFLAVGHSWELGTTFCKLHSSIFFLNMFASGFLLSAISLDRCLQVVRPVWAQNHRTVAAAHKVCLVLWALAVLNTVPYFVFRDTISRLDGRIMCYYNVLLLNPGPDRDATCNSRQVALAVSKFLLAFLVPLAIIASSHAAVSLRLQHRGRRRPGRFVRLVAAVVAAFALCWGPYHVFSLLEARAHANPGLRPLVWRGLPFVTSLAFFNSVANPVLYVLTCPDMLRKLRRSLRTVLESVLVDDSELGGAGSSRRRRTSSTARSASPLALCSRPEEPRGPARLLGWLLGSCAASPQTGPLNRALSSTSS
Briefly: CRTh2 GTPγS antagonism binding assay. Format: biochemical. The following applies: membranes from CHO.K1 cells stably overexpressing the CRTh2 receptor; PGD2 at 50 nM (EC80); 0.1 nM [35S]-GTPγS; 1 h pre-incubation with compound, then 2 h at room temperature; read-out: GTPγ Binding. The method, then:
CRTh2 GTPγS antagonism binding assay
The assay is performed using membranes obtained from CHO.K1 cells stably overexpressing the CRTh2 receptor and [^35S]-GTPγS as radioligand. Assay is performed pre-incubating 4-8 µg of membranes per well with the compound to be tested for 1 h, followed by incubation with PGD2 at 50 nM (EC80), 0.1 nM [^35S]-GTPγS in incubation buffer (20 mM HEPES, 10 mM MgCl2, 100 mM NaCl, 10 µM GDP, 10 µg/ml Saponine and 0.2% BSA) for 2 h at room temperature. The reaction is terminated by filtering in GF/C plates pre-treated with 20 mM HEPES, 10 mM MgCl2, 100 mM NaCl and washing 6 times with wash buffer (20 mM NaH2PO4, 20 mM Na2HPO4). After washing, plates are dried and scintillation buffer Optiphase added. The radioactivity retained in the filter is counted using a Microbeta liquid scintillation counter. Compound IC50 are determined using Excel XL-fit for calculations.
(In general: Binding of GTPγS marks nucleotide exchange on a G protein.)

For the molecule `Cc1ccc2c(n1)c(-c1ccc(C(F)(F)F)cc1CN(Cc1ccccc1)C(=O)C1CC1)cn2CC(=O)O` [Example 9, {3-[2-{[Benzyl(cyclopropylcarbonyl)amino]methyl}-4-(trifluoromethyl)phenyl]-5-methyl-1H-pyrrolo[3,2-b]pyridin-1-yl}acetic acid], the IC50 was determined as 14 nM.

For the molecule `CCN(Cc1cc(C(F)(F)F)ccc1-n1cc(CC(=O)O)c2cccnc21)C(=O)C1CC1` [Example 12, {1-[2-{[(Cyclopropylcarbonyl)(ethyl)amino]methyl}-4-(trifluoromethyl)phenyl]-1H-pyrrolo[2,3-b]pyridin-3-yl}acetic acid], the IC50 amounted to 9 nM.

With `CCN(Cc1cc(F)ccc1-n1cc(CC(=O)O)c2cccnc21)C(=O)C1CC1` [Example 13, [1-(2-{[(Cyclopropylcarbonyl)(ethyl)amino]methyl}-4-fluorophenyl)-1H-pyrrolo[2,3-b]pyridin-3-yl]acetic acid], the IC50 is 17 nM.

As for `CCN(Cc1cc(F)ccc1-n1cc(CC(=O)O)c2ccc(C)nc21)C(=O)C1CC1` [Example 16, [1-(2-{[(Cyclopropylcarbonyl)(ethyl)amino]methyl}-4-fluorophenyl)-6-methyl-1H-pyrrolo[2,3-b]pyridin-3-yl]acetic acid], the IC50 turned out to be 5 nM.

As to `CCN(Cc1cc(C(F)(F)F)ccc1-c1cn(CC(=O)O)c2cccnc12)C(=O)C1CC1` [Example 1, {3-[2-{[(Cyclopropylcarbonyl)(ethyl)amino]methyl}-4-(trifluoromethyl)phenyl]-1H-pyrrolo[3,2-b]pyridin-1-yl}acetic acid], the IC50 came out at 15 nM.

For `CCN(Cc1cc(C(F)(F)F)ccc1-c1cc(CC(=O)O)n2ccc(C)nc12)C(=O)C1CC1` [Example 23, {8-[2-{[(Cyclopropylcarbonyl)(ethyl)amino]methyl}-4-(trifluoromethyl)phenyl]-2-methylpyrrolo[1,2-a]pyrimidin-6-yl}acetic acid], the IC50 came out at 7 nM.

As to `CCN(Cc1cc(F)ccc1-c1cn(CC(=O)O)c2cccnc12)C(=O)C1CC1` [Example 2, [3-(2-{[(Cyclopropylcarbonyl)(ethyl)amino]methyl}-4-fluorophenyl)-1H-pyrrolo[3,2-b]pyridin-1-yl]acetic acid], the IC50 was 10 nM.

In the case of `CCN(Cc1cc(C(F)(F)F)ccc1-c1cn(CC(=O)O)c2ccc(C)nc12)C(=O)C1CC1` [Example 3, {3-[2-{[(Cyclopropylcarbonyl)(ethyl)amino]methyl}-4-(trifluoromethyl)phenyl]-5-methyl-1H-pyrrolo[3,2-b]pyridin-1-yl}acetic acid], the IC50 was 16 nM.

As for `CCN(Cc1cc(C(F)(F)F)ccc1-c1cc(CC(=O)O)n2cccnc12)C(=O)C1CC1` [Example 20, {8-[2-{[(Cyclopropylcarbonyl)(ethyl)amino]methyl}-4-(trifluoromethyl)phenyl]pyrrolo[1,2-a]pyrimidin-6-yl}acetic acid], the IC50 stood at 13 nM.

`CCN(Cc1cc(F)ccc1-c1cc(CC(=O)O)n2cccnc12)C(=O)C1CC1` [Example 21, [8-(2-{[(Cyclopropylcarbonyl)(ethyl)amino]methyl}-4-fluorophenyl)pyrrolo[1,2-a]pyrimidin-6-yl]acetic acid]: the IC50 was found to be 20 nM.

`CCN(Cc1cc(C(F)(F)F)ccc1-c1cc(CC(=O)O)n2ccc(C(F)(F)F)nc12)C(=O)C1CC1` [Example 22, [8-[2-{[(Cyclopropylcarbonyl)(ethyl)amino]methyl}-4-(trifluoromethyl)phenyl]-2-(trifluoromethyl)pyrrolo[1,2-a]pyrimidin-6-yl]acetic acid]: the IC50 is 6 nM.

Regarding `CCN(Cc1cc(C(F)(F)F)ccc1-c1cn(C(C)C(=O)O)c2ccc(C)nc12)C(=O)C1CC1` (stereo not drawn) [Example 6, 2-{3-[2-{[(Cyclopropylcarbonyl)(ethyl)amino]methyl}-4-(trifluoromethyl)phenyl]-5-methyl-1H-pyrrolo[3,2-b]pyridin-1-yl}propanoic acid], the IC50 was found to be 18 nM.

`CCN(Cc1ccccc1-n1cc(CC(=O)O)c2ccc(C)nc21)C(=O)C1CC1` [Example 17, [1-(2-{[(Cyclopropylcarbonyl)(ethyl)amino]methyl}phenyl)-6-methyl-1H-pyrrolo[2,3-b]pyridin-3-yl]acetic acid]: the IC50 is 5 nM.

In the case of `CCN(Cc1cc(C(F)(F)F)ccc1-c1cc(CC(=O)O)c2ccncn12)C(=O)C1CC1` [Example 26, {7-[2-{[(Cyclopropylcarbonyl)(ethyl)amino]methyl}-4-(trifluoromethyl)phenyl]pyrrolo[1,2-c]pyrimidin-5-yl}acetic acid], the IC50 came to 32 nM.

As to `CCN(Cc1cc(F)ccc1-c1cn(CC(=O)O)c2ccc(C(F)(F)F)nc12)C(=O)C1CC1` [Example 7, [3-(2-{[(Cyclopropylcarbonyl)(ethyl)amino]methyl}-4-fluorophenyl)-5-(trifluoromethyl)-1H-pyrrolo[3,2-b]pyridin-1-yl]acetic acid], the IC50 was determined as 11 nM.
